Common to all, as to assay: growth of human tumour cells (NCI), 48 h
Experiment [1] concerns SNB-75 CNS.
The subject of experiment [2] is 786-0 renal.
Experiment [3] has as its system PC-3 prostate.
For experiment [4], the system named is SK-MEL-2 melanoma.
Experiment [5] deals with HL-60(TB) leukemia.
Experiment [6] deals with SK-OV-3 ovarian.
Experiment [7] concerns SF-539 CNS.
The test system of experiment [8] is OVCAR-3 ovarian.
In experiment [9] the test system is HT29 colon.
For experiment [10], the system named is HOP-92 NSCLC.

From PubChem BioAssay (NCI) come the findings set out here.

The structures appear in SMILES notation. “And” between values parts separate entries of the source, which are not always exact repeats. Equal values may be shown once.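 Interpolation was linear, between the two tested concentrations surrounding the appropriate level; five concentrations were tested over 48 hours in 96-well plates. GI50 is the concentration that inhibits growth by half. TGI: total growth inhibition.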

Regarding `CCCCCNC(=O)[C@@H]1CCCN2C(=O)CC[C@H](NC(=O)[C@H](Cc3ccc(OP(=O)(O)O)cc3)NC(C)=O)C(=O)N12`, the GI50 in [1], in experiment [2], in [3], in experiment [4], in [5] and in [6] was greater than 25 µM in each case. Besides, the GI50 in experiment [7], in experiment [8] and in experiment [9] was greater than 25 µM each time. The TGI in experiment [1], in [2], in experiment [3], in experiment [4], in experiment [5] and in [6] was greater than 25 µM each time. Also, the TGI in experiment [7], in experiment [8] and in experiment [9] was greater than 25 µM throughout.

For the molecule `O=C1C(=Cc2ccco2)C(=O)C2CCCCC12` (configuration not stated), the TGI in [1], in experiment [2], in [3], in experiment [4], in experiment [6] and in experiment [10] was greater than 100 µM each time. For the same molecule, the TGI in experiment [7], in [8] and in experiment [9] was greater than 100 µM in each case.

With `COc1ccc2c(c1)nc(N)c1c3cc(OC)c(OC)cc3cn21`, the TGI in experiment [1] came to 22.6 µM; in experiment [2], 11.9 µM; in experiment [3], 16 µM; in experiment [4], 24.1 µM; in [5] it was 0.622 µM; in experiment [6] it was 0.321 µM. For the same molecule, the TGI in [10] was 23.9 µM; in experiment [7], 1.69 µM; in experiment [9], 11.2 µM. Moreover, the GI50 was 0.205 µM in experiment [2]; 2.13 µM in experiment [4]; 0.196 µM in experiment [5]; less than 0.01 µM in experiment [6]; 5.09 µM in [10]; 0.0697 µM in experiment [7].

On to `CCOC(=O)Cc1csc(/N=C2\NC(=O)/C(=C3\C(=O)N(C)c4ccccc43)S2)n1`, for which the GI50 was 28 µM in experiment [2]; 34.1 µM in experiment [3]; 24.2 µM in experiment [4]; greater than 100 µM in [6]; 52.3 µM in experiment [10]; 43.8 µM in experiment [7]. The GI50 in [8] is 28.2 µM; in [9], 44.5 µM. For the same molecule, the TGI in experiment [2] was 72.5 µM; in experiment [3], greater than 100 µM; in experiment [4], greater than 100 µM; in experiment [6] it was greater than 100 µM; in experiment [10], greater than 100 µM; in experiment [7], greater than 100 µM. Also, the TGI in experiment [8] was 72.7 µM; in experiment [9] it was greater than 100 µM.

As to `COc1ccc(/C=C\c2cc(OC)c(OC)c(OC)c2)cc1OC(=O)C(N)CCC(=O)O` (configuration not stated), the GI50 in experiment [2] is 0.00706 µM; in [3] it was 0.00125 µM and 0.000357 µM; in [4] it was 7.35e-05 µM; in [5] it was 0.00017 µM; in experiment [10], 0.00298 µM and 0.000791 µM; in experiment [7], 0.000814 µM. Moreover, the GI50 in experiment [8] was 0.000393 µM. Moreover, the TGI in experiment [4] is greater than 100 µM; in experiment [5], 0.000422 µM and 0.00275 µM; in experiment [6] it was greater than 100 µM; in experiment [10], 0.0086 µM; in [7] it was 0.000166 µM; in experiment [9] it was > 37.9 µM and 46.2 µM.

`N#CC1=C(N)N=C(N2CCCCC2)C(C#N)C12Nc1ccccc1S2` (configuration not stated): the GI50 in experiment [1] was 84.1 µM; in experiment [2], 26.5 µM; in [3], 50.5 µM; in experiment [4], 36.4 µM; in experiment [5], 85.4 µM; in [6] it was 39.1 µM. Further, the GI50 in [10] is 26.9 µM; in [7] it was 30.7 µM; in experiment [9] it was 29.8 µM. Moreover, the TGI in [1] was greater than 100 µM; in experiment [2], 79.2 µM; in [3] it was greater than 100 µM; in [4], 79 µM; in [5] it was greater than 100 µM; in experiment [6], greater than 100 µM. Further, the TGI was greater than 100 µM in experiment [10], 75.4 µM in experiment [7] and greater than 100 µM in experiment [9].

On to `CCCCCCCCCNCCCCCCCCC`, for which the GI50 in experiment [1] was 1.57 µM; in [2], 1.98 µM; in experiment [3], 2.03 µM; in [4] it was 1.8 µM; in experiment [6], 2.04 µM; in [10], 1.47 µM. Besides, the values for the GI50 in experiment [7], in experiment [8] and in [9] were 1.9 µM, 1.93 µM and 1.27 µM, respectively. Moreover, the TGI is 3.38 µM in experiment [1]; 3.43 µM in [2]; 4.7 µM in experiment [3]; 3.41 µM in experiment [4]; 3.83 µM in experiment [6]; 3.03 µM in experiment [10]. Further, the results for the TGI in experiment [7], in experiment [8] and in experiment [9] were 3.4 µM, 3.46 µM and 2.88 µM, respectively.

For the molecule `C[C@@H]1O[C@@H](O[C@@H]2[C@@H](O)[C@H](OCCc3ccc(O)c(O)c3)O[C@H](COC(=O)/C=C/c3ccc(O)c(O)c3)[C@H]2O)[C@H](O)[C@H](O)[C@H]1O`, the GI50 is greater than 100 µM in experiment [1]; 58.4 µM in experiment [2]; 0.524 µM in [3]; greater than 100 µM in [4]; 54.4 µM in [5]; greater than 100 µM in experiment [6]. The GI50 in experiment [7] was greater than 100 µM; in experiment [8], 13 µM. The TGI in experiment [1], in experiment [2], in [3], in experiment [4], in [5] and in experiment [6] was greater than 100 µM throughout. Further, the TGI in experiment [7] and in experiment [8] was greater than 100 µM in each case.

In the case of `CC1(C)COCN1COC1CCCCC1`, the TGI in [1], in experiment [2], in [3], in [4], in experiment [6] and in [10] was greater than 100 µM each time. Further, the TGI in experiment [7], in [8] and in experiment [9] was greater than 100 µM in each case.
